Assay results from US20140242178A1, “TASTE-MASKED FORMULATIONS OF RALTEGRAVIR” (priority 2011, published 2014).

Columns and labels:
[1] = cited from earlier work
[2] = IMPAACT P1066: safety in HIV-1 infected pediatric patients; type: in vivo, human
From the text: Raltegravir has been studied in 126 antiretroviral treatment-experienced HIV-1 infected pediatric patients 2 through 18 years of age, in combination with other antiretroviral agents in IMPAACT P1066. Of the 126 patients, 96 received only the final recommended dose through at least 24 weeks.

[3] = laboratory abnormality, pediatric patients

Row | Compound | solubility in acetonitrile ([1]; acetonitrile) | solubility in ethanol ([1]; ethanol) | solubility in isopropanol ([1]; isopropanol) | solubility in methanol ([1]; methanol) | solubility in water ([1]; water) | ALT increased, Grade 3 [2, 3] | AST increased, Grade 3 [2, 3] | AST increased, Grade 4 [2, 3] | GGT increased, Grade 3 [2, 3] | bilirubin increased, Grade 3 [2, 3] | creatinine increased, Grade 3 [2, 3] | glucose abnormal, Grade 3 [2, 3] | glucose decreased, Grade 3 [2, 3] | magnesium decreased, Grade 3 [2, 3] | neutrophil count decreased, Grade 4 [2, 3] | neutrophil count decreased, Grade 3 ([2]; laboratory abnormality, pediatric patients 2 through 18 years) | Grade 3 or higher adverse reactions (psychomotor hyperactivity, abnormal behavior, insomnia) ([2]; pediatric patients) | frequency, type and severity of drug related adverse reactions ([2]; pediatric patients) | serious Grade 2 possibly drug related allergic rash ([2]; pediatric patients)
1 | Cc1nnc(C(=O)NC(C)(C)c2nc(C(=O)NCc3ccc(F)cc3)c([O-])c(=O)n2C)o1.[K+] [Raltegravir potassium, N-[(4-Fluorophenyl)methyl]-1,6-dihydro-5-hydroxy-1-methyl-2-[1-methyl-1-[[(5-methyl-1,3,4-oxadiazol-2-yl)carbonyl]amino]ethyl]-6-oxo-4-pyrimidinecarboxamide monopotassium salt] | very slightly soluble | very slightly soluble | insoluble | slightly soluble | soluble |  |  |  |  |  |  |  |  |  |  |  |  |  | 
2 | Cc1nnc(C(=O)NC(C)(C)c2nc(C(=O)NCc3ccc(F)cc3)c(O)c(=O)n2C)o1 [Raltegravir] |  |  |  |  |  | 1.1% | 1.1% | 1.1% | 1.1% | 1.1% | 1.1% | 1.1% | 1.1% | 1.1% | 1.1% | 7.4% | one patient | comparable to those observed in adults | one
